Experimental data: ChEMBL document CHEMBL5653615 (J Biol Chem, 2013)

Key:
[1] = target: Platelet-derived growth factor receptor alpha (Homo sapiens) (UniProt P16234); experiment: Inhibition of human PDGFRa at 18.6 nM by HotSpot assay relative to control
[2] = target: Myosin light chain kinase, smooth muscle (Homo sapiens) (UniProt Q15746); experiment: Inhibition of human MYLK at 18.6 nM by HotSpot assay relative to control
[3] = target: Casein kinase I isoform gamma-3 (Homo sapiens) (UniProt Q9Y6M4); experiment: Inhibition of human CK1g3 at 1.82 nM by HotSpot assay relative to control
Casein kinase I isoform gamma-3 (Homo sapiens), sequence (Q9Y6M4 whole entry, looked up, canonical isoform): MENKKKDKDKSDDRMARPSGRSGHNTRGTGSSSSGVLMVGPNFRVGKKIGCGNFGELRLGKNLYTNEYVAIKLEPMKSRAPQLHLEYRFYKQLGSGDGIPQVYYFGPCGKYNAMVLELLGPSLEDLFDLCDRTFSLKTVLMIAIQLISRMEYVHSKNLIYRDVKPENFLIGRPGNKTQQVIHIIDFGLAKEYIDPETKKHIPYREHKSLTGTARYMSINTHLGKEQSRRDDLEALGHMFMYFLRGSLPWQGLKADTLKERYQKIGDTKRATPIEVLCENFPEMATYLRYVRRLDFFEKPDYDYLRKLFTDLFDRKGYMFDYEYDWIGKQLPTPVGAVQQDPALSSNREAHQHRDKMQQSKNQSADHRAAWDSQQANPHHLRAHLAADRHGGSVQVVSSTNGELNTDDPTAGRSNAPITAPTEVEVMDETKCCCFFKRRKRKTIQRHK

[4] = target: Ephrin type-A receptor 7 (Homo sapiens) (UniProt Q15375); experiment: Inhibition of human EPHA7 at 1.82 nM by HotSpot assay relative to control
[5] = target: T1, Cyclin-dependent kinase 5/CDK5 activator 1 (Homo sapiens) (UniProt Q00535+Q15078); experiment: Inhibition of human CDK5/p35 at 1.82 nM by HotSpot assay relative to control; format: protein-complex assay
T1 sequence (Q00535 whole entry): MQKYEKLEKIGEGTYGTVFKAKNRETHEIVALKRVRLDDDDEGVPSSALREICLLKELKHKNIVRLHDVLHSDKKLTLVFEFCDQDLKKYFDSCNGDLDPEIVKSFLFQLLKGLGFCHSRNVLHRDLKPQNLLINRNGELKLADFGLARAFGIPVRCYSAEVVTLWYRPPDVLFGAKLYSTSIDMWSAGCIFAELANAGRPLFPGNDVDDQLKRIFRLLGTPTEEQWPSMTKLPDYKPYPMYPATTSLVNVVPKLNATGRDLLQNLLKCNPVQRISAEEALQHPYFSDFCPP
T1 sequence (Q15078 99-307 partner limits assumed): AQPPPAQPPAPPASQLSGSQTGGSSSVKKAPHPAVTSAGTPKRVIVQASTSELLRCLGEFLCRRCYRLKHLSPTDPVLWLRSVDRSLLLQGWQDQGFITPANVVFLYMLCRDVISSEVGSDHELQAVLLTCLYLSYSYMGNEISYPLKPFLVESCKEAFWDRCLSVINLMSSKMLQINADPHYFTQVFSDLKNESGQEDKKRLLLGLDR

[6] = target: Dual specificity tyrosine-phosphorylation-regulated kinase 1B (Homo sapiens) (UniProt Q9Y463); experiment: Inhibition of human DYRK1B at 1.82 nM by HotSpot assay relative to control
Dual specificity tyrosine-phosphorylation-regulated kinase 1B (Homo sapiens), sequence (Q9Y463 whole entry, looked up): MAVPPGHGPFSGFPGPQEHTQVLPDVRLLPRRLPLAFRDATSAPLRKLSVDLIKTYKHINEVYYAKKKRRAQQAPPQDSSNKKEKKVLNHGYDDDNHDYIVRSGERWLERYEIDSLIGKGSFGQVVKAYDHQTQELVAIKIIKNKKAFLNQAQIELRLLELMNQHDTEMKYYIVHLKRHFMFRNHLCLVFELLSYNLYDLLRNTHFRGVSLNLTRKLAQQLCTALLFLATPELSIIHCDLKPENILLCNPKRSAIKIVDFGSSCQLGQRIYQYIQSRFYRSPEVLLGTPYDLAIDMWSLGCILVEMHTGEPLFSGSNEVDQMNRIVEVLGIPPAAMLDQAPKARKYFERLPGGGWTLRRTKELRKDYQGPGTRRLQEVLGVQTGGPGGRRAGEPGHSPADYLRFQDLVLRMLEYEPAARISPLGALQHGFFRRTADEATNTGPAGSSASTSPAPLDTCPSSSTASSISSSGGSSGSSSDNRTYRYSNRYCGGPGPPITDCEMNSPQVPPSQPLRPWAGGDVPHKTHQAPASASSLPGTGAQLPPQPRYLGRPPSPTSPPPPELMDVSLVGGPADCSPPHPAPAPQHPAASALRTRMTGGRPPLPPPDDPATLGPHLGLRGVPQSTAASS

[7] = target: T2, Protein kinase C epsilon type (Homo sapiens) (UniProt Q02156); experiment: Inhibition of human PKCepsilon at 1.82 nM by HotSpot assay relative to control
T2 sequence (whole entry): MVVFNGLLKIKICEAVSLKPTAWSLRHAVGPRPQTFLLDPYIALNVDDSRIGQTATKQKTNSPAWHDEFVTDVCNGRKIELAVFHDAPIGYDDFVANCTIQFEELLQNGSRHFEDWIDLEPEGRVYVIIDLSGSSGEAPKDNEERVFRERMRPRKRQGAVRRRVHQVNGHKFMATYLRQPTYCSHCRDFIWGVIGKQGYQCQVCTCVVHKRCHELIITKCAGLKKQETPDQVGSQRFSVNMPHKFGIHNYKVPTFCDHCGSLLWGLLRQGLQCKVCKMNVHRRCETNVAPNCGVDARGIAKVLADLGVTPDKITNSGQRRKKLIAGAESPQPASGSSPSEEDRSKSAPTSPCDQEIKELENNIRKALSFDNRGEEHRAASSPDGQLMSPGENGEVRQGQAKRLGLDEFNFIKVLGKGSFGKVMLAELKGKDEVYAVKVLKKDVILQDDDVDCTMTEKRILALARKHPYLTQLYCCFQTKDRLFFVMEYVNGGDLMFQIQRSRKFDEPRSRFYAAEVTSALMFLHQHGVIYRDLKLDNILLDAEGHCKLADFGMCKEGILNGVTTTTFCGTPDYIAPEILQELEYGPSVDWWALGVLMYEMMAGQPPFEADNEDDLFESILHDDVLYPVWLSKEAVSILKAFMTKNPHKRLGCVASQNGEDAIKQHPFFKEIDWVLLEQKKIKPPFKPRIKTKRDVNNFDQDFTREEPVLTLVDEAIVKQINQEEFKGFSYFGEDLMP

[8] = target: T1, Cyclin-dependent kinase 5/CDK5 activator 1 (Homo sapiens); experiment: Inhibition of human CDK5/p25 at 1.82 nM by HotSpot assay relative to control; format: protein-complex assay
[9] = target: T3, Ephrin type-B receptor 1 (Homo sapiens) (UniProt P54762); experiment: Inhibition of human EPHB1 at 1.82 nM by HotSpot assay relative to control
T3 sequence (whole entry): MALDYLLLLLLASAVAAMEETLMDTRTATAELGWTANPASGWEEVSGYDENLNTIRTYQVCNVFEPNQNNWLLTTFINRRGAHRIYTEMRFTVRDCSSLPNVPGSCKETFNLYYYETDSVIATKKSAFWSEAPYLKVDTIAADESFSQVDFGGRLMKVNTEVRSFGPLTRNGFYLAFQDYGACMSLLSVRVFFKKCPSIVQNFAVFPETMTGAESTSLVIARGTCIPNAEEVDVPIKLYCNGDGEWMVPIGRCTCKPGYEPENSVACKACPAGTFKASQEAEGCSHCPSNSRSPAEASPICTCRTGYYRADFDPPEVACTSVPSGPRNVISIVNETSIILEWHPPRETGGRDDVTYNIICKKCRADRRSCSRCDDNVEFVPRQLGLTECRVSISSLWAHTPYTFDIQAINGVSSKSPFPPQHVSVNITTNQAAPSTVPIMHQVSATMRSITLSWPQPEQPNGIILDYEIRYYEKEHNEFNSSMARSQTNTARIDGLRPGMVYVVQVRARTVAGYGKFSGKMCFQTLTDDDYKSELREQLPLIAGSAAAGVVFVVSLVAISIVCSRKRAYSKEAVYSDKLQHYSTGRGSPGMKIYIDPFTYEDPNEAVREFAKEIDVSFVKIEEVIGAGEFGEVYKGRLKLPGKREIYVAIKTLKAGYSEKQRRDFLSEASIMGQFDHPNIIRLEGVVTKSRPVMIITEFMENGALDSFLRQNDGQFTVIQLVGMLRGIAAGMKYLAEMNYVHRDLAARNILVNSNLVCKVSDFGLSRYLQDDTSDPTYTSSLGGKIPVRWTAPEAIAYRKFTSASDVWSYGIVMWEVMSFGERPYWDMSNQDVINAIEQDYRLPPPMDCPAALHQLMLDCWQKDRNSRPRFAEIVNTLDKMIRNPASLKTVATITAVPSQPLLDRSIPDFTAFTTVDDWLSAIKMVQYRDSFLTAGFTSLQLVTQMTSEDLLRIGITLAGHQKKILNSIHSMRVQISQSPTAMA

[10] = target: T4, Activin receptor type-1 (Homo sapiens) (UniProt Q04771); experiment: Inhibition of human ALK2 at 1.82 nM by HotSpot assay relative to control
T4 sequence (whole entry): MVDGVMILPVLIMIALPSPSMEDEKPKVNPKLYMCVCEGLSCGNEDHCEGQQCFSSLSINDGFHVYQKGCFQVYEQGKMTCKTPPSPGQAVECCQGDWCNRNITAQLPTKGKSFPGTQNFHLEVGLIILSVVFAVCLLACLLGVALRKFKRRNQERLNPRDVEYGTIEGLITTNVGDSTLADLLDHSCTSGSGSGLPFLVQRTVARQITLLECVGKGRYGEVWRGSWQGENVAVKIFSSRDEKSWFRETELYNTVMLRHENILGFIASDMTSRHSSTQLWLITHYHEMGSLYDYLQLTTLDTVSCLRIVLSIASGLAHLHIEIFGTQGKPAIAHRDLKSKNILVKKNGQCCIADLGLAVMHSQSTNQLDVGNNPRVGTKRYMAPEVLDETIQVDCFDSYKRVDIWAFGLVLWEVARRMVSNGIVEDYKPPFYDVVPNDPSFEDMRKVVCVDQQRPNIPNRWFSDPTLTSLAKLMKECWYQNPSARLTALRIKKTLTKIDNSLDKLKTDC

Platelet-derived growth factor receptor alpha (Homo sapiens), sequence (P16234 whole entry): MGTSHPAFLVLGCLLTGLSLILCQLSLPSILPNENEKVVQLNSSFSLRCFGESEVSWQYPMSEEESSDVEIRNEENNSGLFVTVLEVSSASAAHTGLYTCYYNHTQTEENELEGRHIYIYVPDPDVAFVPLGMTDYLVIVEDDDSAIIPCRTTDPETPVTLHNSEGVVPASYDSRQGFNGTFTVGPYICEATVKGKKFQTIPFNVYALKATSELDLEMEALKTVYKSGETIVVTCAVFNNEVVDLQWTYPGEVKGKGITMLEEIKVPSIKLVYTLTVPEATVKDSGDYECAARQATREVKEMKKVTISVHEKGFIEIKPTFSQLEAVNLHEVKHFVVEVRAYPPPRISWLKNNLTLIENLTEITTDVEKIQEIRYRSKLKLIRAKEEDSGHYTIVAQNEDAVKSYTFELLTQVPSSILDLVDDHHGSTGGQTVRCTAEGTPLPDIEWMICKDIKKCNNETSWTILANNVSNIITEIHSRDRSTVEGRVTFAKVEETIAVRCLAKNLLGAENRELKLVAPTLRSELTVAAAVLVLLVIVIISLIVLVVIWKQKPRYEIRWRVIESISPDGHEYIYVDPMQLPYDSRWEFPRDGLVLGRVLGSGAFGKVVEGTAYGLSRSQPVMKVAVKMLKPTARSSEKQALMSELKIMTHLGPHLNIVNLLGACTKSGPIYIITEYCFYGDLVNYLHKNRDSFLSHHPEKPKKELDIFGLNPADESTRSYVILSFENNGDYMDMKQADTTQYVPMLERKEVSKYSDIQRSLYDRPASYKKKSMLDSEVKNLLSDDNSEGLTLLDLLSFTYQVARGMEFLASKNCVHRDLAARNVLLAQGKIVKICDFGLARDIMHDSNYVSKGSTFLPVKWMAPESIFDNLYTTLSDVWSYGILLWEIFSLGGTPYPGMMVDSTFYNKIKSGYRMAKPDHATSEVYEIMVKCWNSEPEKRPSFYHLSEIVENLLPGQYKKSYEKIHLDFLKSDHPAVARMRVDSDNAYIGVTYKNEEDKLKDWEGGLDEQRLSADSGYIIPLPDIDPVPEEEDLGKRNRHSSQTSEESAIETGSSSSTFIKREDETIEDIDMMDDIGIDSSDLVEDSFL
Myosin light chain kinase, smooth muscle (Homo sapiens), sequence (Q15746 whole entry, canonical isoform): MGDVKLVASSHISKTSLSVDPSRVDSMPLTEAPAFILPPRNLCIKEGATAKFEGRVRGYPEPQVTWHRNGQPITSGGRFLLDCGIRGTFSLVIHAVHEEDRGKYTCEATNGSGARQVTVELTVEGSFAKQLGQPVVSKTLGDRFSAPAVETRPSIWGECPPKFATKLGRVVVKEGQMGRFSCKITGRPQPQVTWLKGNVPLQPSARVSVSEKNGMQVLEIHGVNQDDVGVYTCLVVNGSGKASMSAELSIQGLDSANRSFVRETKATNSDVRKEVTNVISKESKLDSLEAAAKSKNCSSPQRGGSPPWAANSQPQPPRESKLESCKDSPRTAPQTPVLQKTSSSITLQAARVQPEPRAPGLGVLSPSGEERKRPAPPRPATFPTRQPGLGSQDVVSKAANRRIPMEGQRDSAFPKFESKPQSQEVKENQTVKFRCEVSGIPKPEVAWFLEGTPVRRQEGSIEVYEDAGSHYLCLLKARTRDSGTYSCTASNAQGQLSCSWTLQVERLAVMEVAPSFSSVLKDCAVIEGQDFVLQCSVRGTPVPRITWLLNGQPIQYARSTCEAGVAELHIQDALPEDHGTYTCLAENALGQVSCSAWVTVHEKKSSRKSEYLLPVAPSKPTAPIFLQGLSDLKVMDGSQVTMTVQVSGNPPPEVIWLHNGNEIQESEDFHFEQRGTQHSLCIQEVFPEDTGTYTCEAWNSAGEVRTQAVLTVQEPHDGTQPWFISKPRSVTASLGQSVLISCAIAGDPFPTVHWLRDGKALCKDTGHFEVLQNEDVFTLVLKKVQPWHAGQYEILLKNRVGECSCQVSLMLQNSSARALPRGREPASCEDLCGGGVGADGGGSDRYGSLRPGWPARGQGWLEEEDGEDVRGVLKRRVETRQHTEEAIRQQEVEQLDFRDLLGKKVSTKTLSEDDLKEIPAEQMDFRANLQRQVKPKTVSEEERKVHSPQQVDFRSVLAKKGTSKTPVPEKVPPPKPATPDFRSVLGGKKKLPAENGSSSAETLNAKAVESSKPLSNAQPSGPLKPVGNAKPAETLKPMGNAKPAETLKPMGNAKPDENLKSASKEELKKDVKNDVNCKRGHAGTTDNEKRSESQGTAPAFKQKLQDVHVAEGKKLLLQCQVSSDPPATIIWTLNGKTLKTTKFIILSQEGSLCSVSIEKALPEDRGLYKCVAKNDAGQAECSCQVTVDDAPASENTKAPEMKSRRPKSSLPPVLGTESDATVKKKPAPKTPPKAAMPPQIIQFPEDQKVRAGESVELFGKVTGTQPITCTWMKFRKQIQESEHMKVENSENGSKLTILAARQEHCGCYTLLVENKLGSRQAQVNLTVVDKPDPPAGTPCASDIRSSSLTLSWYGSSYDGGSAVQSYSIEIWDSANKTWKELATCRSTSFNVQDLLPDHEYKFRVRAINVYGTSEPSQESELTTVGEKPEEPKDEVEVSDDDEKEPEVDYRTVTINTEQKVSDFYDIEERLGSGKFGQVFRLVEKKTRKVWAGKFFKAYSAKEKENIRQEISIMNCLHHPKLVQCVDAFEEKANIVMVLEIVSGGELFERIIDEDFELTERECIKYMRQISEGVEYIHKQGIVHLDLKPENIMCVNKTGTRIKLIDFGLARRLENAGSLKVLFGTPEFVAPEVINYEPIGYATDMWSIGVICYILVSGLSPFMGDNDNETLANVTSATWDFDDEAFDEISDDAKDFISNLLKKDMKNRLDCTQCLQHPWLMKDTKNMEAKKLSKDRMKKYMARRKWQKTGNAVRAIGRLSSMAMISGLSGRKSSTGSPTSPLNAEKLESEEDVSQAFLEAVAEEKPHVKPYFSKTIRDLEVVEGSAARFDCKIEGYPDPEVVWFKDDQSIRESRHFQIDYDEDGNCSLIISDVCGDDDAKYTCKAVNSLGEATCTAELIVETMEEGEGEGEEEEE

Row | SMILES | inhibition [1] [%] | inhibition [2] [%] | inhibition [3] [%] | inhibition [4] [%] | inhibition [5] [%] | inhibition [6] [%] | inhibition [7] [%] | inhibition [8] [%] | inhibition [9] [%] | inhibition [10] [%]
1 | C[C@]1(O)C[C@@H](c2nc(-c3ccc4ccc(-c5ccccc5)nc4c3)c3c(N)nccn32)C1 | 2.05 | 2.54 |  |  |  |  |  |  |  | 
2 | C[C@@]1(C(=O)Nc2ccc(F)nc2)CCCN1c1nc(Nc2cc(C3CC3)n[nH]2)c2cccn2n1 |  |  | 0.91 | 3.41 | 1.01 | -1.57 | -6.93 | 2.17 | 2.28 | 5.9
